Assay [1] has as its system HCV genotype 1a (H77 strain) replicon in HUH-7 cells. Kind of assay: HCV replicon luciferase reporter assay, genotype 1a. It counts as cell-based. The following applies: Hepatitis C virus, Huh-7, 72 h, HCV genotype 1a replicon luciferase, 3 days incubation, read-out: LE_1a (EC50, range). In a few lines:
(§1)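 Replicon inhibition for both genotypes was measured as Renilla luciferase signal (EnduRen, 7.5 μM final, 2 h) after 3-day, 37° C exposure of replicon-bearing HUH-7 cells in 4% FCS DMEM, 0.5% DMSO. The 1b construct carries S1179I; the 1a H77 construct carries P1496L and S2204I. Twenty-point, 3-fold dilutions were fitted four-parametrically for EC50, and CC50 was taken from multiplexed Cell Titer-Blue.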

In assay [2] the test system is HCV genotype 1b (Con1) replicon in HUH-7 cells. Kind of assay: HCV replicon luciferase reporter assay, genotype 1b. The note with it: Hepatitis C virus, Huh-7, 72 h, HCV genotype 1b replicon luciferase, 3 days incubation, read-out: LE_1b (EC50, range). It counts as cell-based. In outline:
as §1

The text below walks through data of patent publication US9499550B2 (BRISTOL-MYERS SQUIBB COMPANY, priority 2012, dated 2016).

Like-named read-outs stand apart in the source and are kept apart here. A value given as a limit tells only on which side of the number the result lay.

Regarding `COc1cc2ccnc(O[C@@H]3C[C@H]4C(=O)N[C@]5(C(=O)NS(=O)(=O)C6(C)CC6)C[C@H]5/C=C\CC[C@@H](C)C[C@@H](C)[C@H](NC(=O)OC(C)(C)C(F)(F)F)C(=O)N4C3)c2cc1F` [Compound 4039, 1,1-trifluoro-2-methylpropan-2-yl(2R,6S,7R,9R,13aS,14aR,16aS,Z)-2-(7-fluoro-6-methoxyisoquinolin-1-yloxy)-7,9-dimethyl-14a-(1-methylcyclopropylsulfonylcarbamoyl)-5,16-dioxo-1,2,3,5,6,7,8,9,10,11,13a,14,14a,15,16,16a-hexadecahydrocyclopropa[e]pyrrolo[1,2-a][1,4]diazacyclopentadecin-6-ylcarbamate], the 50% effective concentration (EC50) in assay [1] and in assay [2] was < 5.46 nM in each case.

Consider `C[C@@H]1CC/C=C\[C@@H]2C[C@@]2(C(=O)NS(=O)(=O)C2CC2)NC(=O)[C@@H]2C[C@@H](Oc3nccc4ccccc34)CN2C(=O)[C@@H](NC(=O)OC(C)(C)C(F)(F)F)[C@H](C)C1` [Compound 4040], for which the EC50 in assay [1] (GETYPE1A) and in assay [2] (GETYPE1B) was < 5.46 nM throughout.

With `CCOc1cnc(O[C@@H]2C[C@H]3C(=O)N[C@]4(C(=O)NS(=O)(=O)C5(C)CC5)C[C@H]4/C=C\CC[C@@H](C)C[C@@H](C)[C@H](NC(=O)OC(C)(C)C(F)(F)F)C(=O)N3C2)c2ccccc12` [Compound 4041], the EC50 in assay [1] (GETYPE1A) and in assay [2] (GETYPE1B) was < 5.46 nM each time.

With `COc1cc2ccnc(O[C@@H]3C[C@H]4C(=O)N[C@]5(C(=O)NS(=O)(=O)C6(F)CC6)C[C@H]5/C=C\CC[C@@H](C)C[C@@H](C)[C@H](NC(=O)OCC(C)(C)C)C(=O)N4C3)c2cc1Cl` [Compound 4042, neopentyl (2R,6S,7R,9R,13aS,14aR,16aS,Z)-2-(7-chloro-6-methoxyisoquinolin-1-yloxy)-14a-(1-fluorocyclopropylsulfonylcarbamoyl)-7,9-dimethyl-5,16-dioxo-1,2,3,5,6,7,8,9,10,11,13a,14,14a,15,16,16a-hexadecahydrocyclopropa[e]pyrrolo[1,2-a][1,4]diazacyclopentadecin-6-ylcarbamate], the EC50 in assay [1] and in assay [2] was < 5.46 nM each time.

For the molecule `COc1cc2ccnc(O[C@@H]3C[C@H]4C(=O)N[C@]5(C(=O)NS(=O)(=O)C6(F)CC6)C[C@H]5/C=C\CC[C@@H](C)C[C@@H](C)[C@H](NC(=O)OC(C)(C)C(F)(F)F)C(=O)N4C3)c2cc1Cl` [Compound 4043], the EC50 in assay [1] (GETYPE1A) and in assay [2] (GETYPE1B) was < 5.46 nM throughout.

Take `COc1cc2ccnc(O[C@@H]3C[C@H]4C(=O)N[C@]5(C(=O)NS(=O)(=O)C6(F)CC6)C[C@H]5/C=C\CC[C@H](C)C[C@@H](C)[C@H](NC(=O)OC(C)(C)C(F)(F)F)C(=O)N4C3)c2cc1Cl` [Compound 4044]: the EC50 was 4.82 to 103 nM in assay [1] (GETYPE1A) and < 5.46 nM in assay [2] (GETYPE1B).

As for `COc1cnc(O[C@@H]2C[C@H]3C(=O)N[C@]4(C(=O)NS(=O)(=O)C5(F)CC5)C[C@H]4/C=C\CC[C@@H](C)C[C@@H](C)[C@H](NC(=O)OC(C)(C)C)C(=O)N3C2)c2cc(F)ccc12` [Compound 4045, tert-butyl (2R,6S,7R,9R,13aS,14aR,16aS,Z)-2-(7-fluoro-4-methoxyisoquinolin-1-yloxy)-14a-(1-fluorocyclopropylsulfonylcarbamoyl)-7,9-dimethyl-5,16-dioxo-1,2,3,5,6,7,8,9,10,11,13a,14,14a,15,16,16a-hexadecahydrocyclopropa[e]pyrrolo[1,2-a][1,4]diazacyclopentadecin-6-ylcarbamate], the EC50 in assay [1] and in assay [2] was < 5.46 nM each time.

On to `COc1cnc(O[C@@H]2C[C@H]3C(=O)N[C@]4(C(=O)NS(=O)(=O)C5(F)CC5)C[C@H]4/C=C\CC[C@H](C)C[C@@H](C)[C@H](NC(=O)OC(C)(C)C)C(=O)N3C2)c2cc(F)ccc12` [Compound 4046, tert-butyl (2R,6S,7R,9S,13aS,14aR,16aS,Z)-2-(7-fluoro-4-methoxyisoquinolin-1-yloxy)-14a-(1-fluorocyclopropylsulfonylcarbamoyl)-7,9-dimethyl-5,16-dioxo-1,2,3,5,6,7,8,9,10,11,13a,14,14a,15,16,16a-hexadecahydrocyclopropa[e]pyrrolo[1,2-a][1,4]diazacyclopentadecin-6-ylcarbamate], for which the half-maximal effective concentration (EC50) in assay [1] and in assay [2] was 4.82 to 103 nM each time.

With `COc1cnc(O[C@@H]2C[C@H]3C(=O)N[C@]4(C(=O)NS(=O)(=O)C5(F)CC5)C[C@H]4/C=C\CC[C@@H](C)C[C@@H](C)[C@H](NC(=O)OCC(C)(C)C)C(=O)N3C2)c2cc(F)ccc12` [Compound 4047, neopentyl (2R,6S,7R,9R,13aS,14aR,16aS,Z)-2-(7-fluoro-4-methoxyisoquinolin-1-yloxy)-14a-(1-fluorocyclopropylsulfonylcarbamoyl)-7,9-dimethyl-5,16-dioxo-1,2,3,5,6,7,8,9,10,11,13a,14,14a,15,16,16a-hexadecahydrocyclopropa[e]pyrrolo[1,2-a][1,4]diazacyclopentadecin-6-ylcarbamate], the 50% effective concentration (EC50) in assay [1] and in assay [2] was < 5.46 nM throughout.

Turning to `COc1cnc(O[C@@H]2C[C@H]3C(=O)N[C@]4(C(=O)NS(=O)(=O)C5(F)CC5)C[C@H]4/C=C\CC[C@@H](C)C[C@@H](C)[C@H](NC(=O)OCC4(C)CC4)C(=O)N3C2)c2cc(F)ccc12` [Compound 4048, (1-methylcyclopropyl)methyl (2R,6S,7R,9R,13aS,14aR,16aS,Z)-2-(7-fluoro-4-methoxyisoquinolin-1-yloxy)-14a-(1-fluorocyclopropylsulfonylcarbamoyl)-7,9-dimethyl-5,16-dioxo-1,2,3,5,6,7,8,9,10,11,13a,14,14a,15,16,16a-hexadecahydrocyclopropa[e]pyrrolo[1,2-a][1,4]diazacyclopentadecin-6-ylcarbamate], the EC50 in assay [1] and in assay [2] was < 5.46 nM in each case.

With `COc1cc2ccnc(O[C@@H]3C[C@H]4C(=O)N[C@]5(C(=O)NS(=O)(=O)C6(F)CC6)C[C@H]5/C=C\CC[C@@H](C)C[C@@H](C)[C@H](NC(=O)OC(C)(C)C)C(=O)N4C3)c2cc1F` [Compound 4049, tert-butyl (2R,6S,7R,9R,13aS,14aR,16aS,Z)-2-(7-fluoro-6-methoxyisoquinolin-1-yloxy)-14a-(1-fluorocyclopropylsulfonylcarbamoyl)-7,9-dimethyl-5,16-dioxo-1,2,3,5,6,7,8,9,10,11,13a,14,14a,15,16,16a-hexadecahydrocyclopropa[e]pyrrolo[1,2-a][1,4]diazacyclopentadecin-6-ylcarbamate], the concentration for a half-maximal effect (EC50) in assay [1] and in assay [2] was < 5.46 nM throughout.

As to `COc1cc2ccnc(O[C@@H]3C[C@H]4C(=O)N[C@]5(C(=O)NS(=O)(=O)C6(F)CC6)C[C@H]5/C=C\CC[C@@H](C)C[C@@H](C)[C@H](NC(=O)OCC5(C)CC5)C(=O)N4C3)c2cc1F` [Compound 4050, (1-methylcyclopropyl)methyl (2R,6S,7R,9R,13aS,14aR,16aS,Z)-2-(7-fluoro-6-methoxyisoquinolin-1-yloxy)-14a-(1-fluorocyclopropylsulfonylcarbamoyl)-7,9-dimethyl-5,16-dioxo-1,2,3,5,6,7,8,9,10,11,13a,14,14a,15,16,16a-hexadecahydrocyclopropa[e]pyrrolo[1,2-a][1,4]diazacyclopentadecin-6-ylcarbamate], the concentration for a half-maximal effect (EC50) in assay [1] and in assay [2] was < 5.46 nM throughout.

For the molecule `COc1cc2ccnc(O[C@@H]3C[C@H]4C(=O)N[C@]5(C(=O)NS(=O)(=O)C6(F)CC6)C[C@H]5/C=C\CC[C@@H](C)C[C@@H](C)[C@H](NC(=O)OCC(C)(C)C)C(=O)N4C3)c2cc1F` [Compound 4051, neopentyl (2R,6S,7R,9R,13aS,14aR,16aS,Z)-2-(7-fluoro-6-methoxyisoquinolin-1-yloxy)-14a-(1-fluorocyclopropylsulfonylcarbamoyl)-7,9-dimethyl-5,16-dioxo-1,2,3,5,6,7,8,9,10,11,13a,14,14a,15,16,16a-hexadecahydrocyclopropa[e]pyrrolo[1,2-a][1,4]diazacyclopentadecin-6-ylcarbamate], the concentration for a half-maximal effect (EC50) in assay [1] and in assay [2] was < 5.46 nM throughout.

For `COc1cnc(O[C@@H]2C[C@H]3C(=O)N[C@]4(C(=O)NS(=O)(=O)C5(C)CC5)C[C@H]4/C=C\CC[C@@H](C)C[C@@H](C)[C@H](NC(=O)OC(C)(C)C(F)(F)F)C(=O)N3C2)c2ccccc12` [Compound 4052], the EC50 in assay [1] and in assay [2] was < 5.46 nM each time.

Regarding `CCOc1cnc(O[C@@H]2C[C@H]3C(=O)N[C@]4(C(=O)NS(=O)(=O)C5(F)CC5)C[C@H]4/C=C\CC[C@@H](C)C[C@@H](C)[C@H](NC(=O)OC(C)(C)C)C(=O)N3C2)c2ccccc12` [Compound 4053, tert-butyl (2R,6S,7R,9R,13aS,14aR,16aS,Z)-2-(4-ethoxyisoquinolin-1-yloxy)-14a-(1-fluorocyclopropylsulfonylcarbamoyl)-7,9-dimethyl-5,16-dioxo-1,2,3,5,6,7,8,9,10,11,13a,14,14a,15,16,16a-hexadecahydrocyclopropa[e]pyrrolo[1,2-a][1,4]diazacyclopentadecin-6-ylcarbamate], the concentration giving a half-maximal response (EC50) in assay [1] and in assay [2] was < 5.46 nM throughout.

With `COc1ccc2c(O[C@@H]3C[C@H]4C(=O)N[C@]5(C(=O)NS(=O)(=O)C6CC6)C[C@H]5/C=C\CC[C@@H](C)C[C@@H](C)[C@H](NC(=O)OC5(C)CC5)C(=O)N4C3)nccc2c1` [Compound 4054], the 50% effective concentration (EC50) in assay [1] and in assay [2] was < 5.46 nM in each case.
